From the supplement of paper PMC10307832

Legend:
Assay in all cases: relative viability (nuclei count vs DMSO), 5 days (fraction); higher = more cells survive
[1] = compound: O=C(c1cc(Cc2n[nH]c(=O)c3ccccc23)ccc1F)N1CCN(C(=O)C2CC2)CC1 [Olaparib] + CC(C)C[C@H](NC(=O)[C@H](Cc1ccccc1)NC(=O)c1cnccn1)B(O)O [Bortezomib] (partner 0.002 µM)
Summary of the method: (§1)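 Relative viability is defined as nuclei in treated wells over nuclei in vehicle wells. Duplicate plates were run and medians reported. Lung cancer cell lines in 1536-well plates were dosed by pin tool one day after seeding, with one drug or with a fixed anchor-drug dose plus five library-drug doses (not always all listed) in √10 steps, and nuclei were counted after 5 days.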

[2] = compound: CC(C)C[C@H](NC(=O)[C@H](CCc1ccccc1)NC(=O)CN1CCOCC1)C(=O)N[C@@H](Cc1ccccc1)C(=O)N[C@@H](CC(C)C)C(=O)[C@@]1(C)CO1 [Carfilzomib] + C[C@]1(O)C[C@@H](c2nc(-c3ccc4ccc(-c5ccccc5)nc4c3)c3c(N)nccn32)C1 [Linsitinib] (partner 1 µM)
Summary of the method: as §1

[3] = compound: CC(C)C[C@H](NC(=O)[C@H](CCc1ccccc1)NC(=O)CN1CCOCC1)C(=O)N[C@@H](Cc1ccccc1)C(=O)N[C@@H](CC(C)C)C(=O)[C@@]1(C)CO1 [Carfilzomib] + CC1(C)CCC(c2ccc(Cl)cc2)=C(CN2CCN(c3ccc(C(=O)NS(=O)(=O)c4ccc(N[C@H](CCN5CCOCC5)CSc5ccccc5)c(S(=O)(=O)C(F)(F)F)c4)cc3)CC2)C1 [Navitoclax] (partner 0.5 µM)
Summary of the method: as §1

[4] = compound: C[C@@H](Oc1cc(-c2cnn(C3CCNCC3)c2)cnc1N)c1c(Cl)ccc(F)c1Cl [Crizotinib] + C[C@]1(O)C[C@@H](c2nc(-c3ccc4ccc(-c5ccccc5)nc4c3)c3c(N)nccn32)C1 [Linsitinib] (partner 1 µM)
Summary of the method: as §1

NCI-H727
relative viability ([1]; first compound 0.08 µM): 0.844 | relative viability ([1]; first compound 0.253 µM): 0.829 | relative viability ([1]; first compound 2.53 µM): 0.709 | relative viability ([1]; first compound 8 µM): 0.514 | relative viability ([2]; first compound 0.001 µM): 0.406 | relative viability ([2]; first compound 0.003162 µM): 0.249 | relative viability ([2]; first compound 0.01 µM): 0.301 | relative viability ([2]; first compound 0.03162 µM): 0.431 | relative viability ([2]; first compound 0.1 µM): 0.117 | relative viability ([3]; first compound 0.001 µM): 0.429 | relative viability ([3]; first compound 0.003162 µM): 0.637 | relative viability ([3]; first compound 0.01 µM): 0.601 | relative viability ([3]; first compound 0.03162 µM): 0.165 | relative viability ([3]; first compound 0.1 µM): 0.137 | relative viability ([4]; first compound 0.01 µM): 0.305 | relative viability ([4]; first compound 0.03162 µM): 0.282 | relative viability ([4]; first compound 0.1 µM): 0.261 | relative viability ([4]; first compound 0.3162 µM): 0.271 | relative viability ([4]; first compound 1 µM): 0.409

NCI-H838
relative viability ([1]; first compound 0.08 µM): 0.956 | relative viability ([1]; first compound 0.253 µM): 0.738 | relative viability ([1]; first compound 2.53 µM): 0.771 | relative viability ([1]; first compound 8 µM): 0.9 | relative viability ([2]; first compound 0.001 µM): 1.02 | relative viability ([2]; first compound 0.003162 µM): 1.02 | relative viability ([2]; first compound 0.01 µM): 1.05 | relative viability ([2]; first compound 0.03162 µM): 0.676 | relative viability ([2]; first compound 0.1 µM): 0.116 | relative viability ([3]; first compound 0.001 µM): 1.24 | relative viability ([3]; first compound 0.003162 µM): 1.26 | relative viability ([3]; first compound 0.01 µM): 1.16 | relative viability ([3]; first compound 0.03162 µM): 0.686 | relative viability ([3]; first compound 0.1 µM): 0.153 | relative viability ([4]; first compound 0.01 µM): 0.938 | relative viability ([4]; first compound 0.03162 µM): 1.05 | relative viability ([4]; first compound 0.3162 µM): 0.882 | relative viability ([4]; first compound 1 µM): 1.01

NCI-H1299
relative viability ([1]; first compound 0.08 µM): 1.07 | relative viability ([1]; first compound 0.253 µM): 0.97 | relative viability ([1]; first compound 2.53 µM): 1.04 | relative viability ([1]; first compound 8 µM): 0.968 | relative viability ([2]; first compound 0.001 µM): 1.02 | relative viability ([2]; first compound 0.003162 µM): 1.05 | relative viability ([2]; first compound 0.01 µM): 0.971 | relative viability ([2]; first compound 0.03162 µM): 0.239 | relative viability ([2]; first compound 0.1 µM): 0.106 | relative viability ([3]; first compound 0.001 µM): 1.08 | relative viability ([3]; first compound 0.003162 µM): 1.05 | relative viability ([3]; first compound 0.01 µM): 1.03 | relative viability ([3]; first compound 0.03162 µM): 0.887 | relative viability ([3]; first compound 0.1 µM): 0.195 | relative viability ([4]; first compound 0.01 µM): 0.988 | relative viability ([4]; first compound 0.03162 µM): 0.992 | relative viability ([4]; first compound 0.1 µM): 1.02 | relative viability ([4]; first compound 0.3162 µM): 0.99 | relative viability ([4]; first compound 1 µM): 0.984

NCI-H1355
relative viability ([1]; first compound 0.08 µM): 1.19 | relative viability ([1]; first compound 0.253 µM): 1.14 | relative viability ([1]; first compound 2.53 µM): 1.15 | relative viability ([1]; first compound 8 µM): 1.12 | relative viability ([2]; first compound 0.001 µM): 0.795 | relative viability ([2]; first compound 0.003162 µM): 0.915 | relative viability ([2]; first compound 0.01 µM): 0.794 | relative viability ([2]; first compound 0.03162 µM): 0.487 | relative viability ([2]; first compound 0.1 µM): 0.14 | relative viability ([3]; first compound 0.001 µM): 0.792 | relative viability ([3]; first compound 0.003162 µM): 1.02 | relative viability ([3]; first compound 0.01 µM): 0.979 | relative viability ([3]; first compound 0.03162 µM): 0.486 | relative viability ([3]; first compound 0.1 µM): 0.133 | relative viability ([4]; first compound 0.01 µM): 0.869 | relative viability ([4]; first compound 0.03162 µM): 0.82 | relative viability ([4]; first compound 0.1 µM): 0.811 | relative viability ([4]; first compound 0.3162 µM): 0.799 | relative viability ([4]; first compound 1 µM): 0.867

NCI-H1437
relative viability ([1]; first compound 0.08 µM): 0.504 | relative viability ([1]; first compound 0.253 µM): 0.422 | relative viability ([1]; first compound 2.53 µM): 0.529 | relative viability ([1]; first compound 8 µM): 0.424 | relative viability ([2]; first compound 0.001 µM): 0.965 | relative viability ([2]; first compound 0.003162 µM): 1.08 | relative viability ([2]; first compound 0.01 µM): 0.984 | relative viability ([2]; first compound 0.03162 µM): 0.388 | relative viability ([2]; first compound 0.1 µM): 0.117 | relative viability ([3]; first compound 0.001 µM): 1.08 | relative viability ([3]; first compound 0.003162 µM): 1.12 | relative viability ([3]; first compound 0.01 µM): 1.12 | relative viability ([3]; first compound 0.03162 µM): 0.759 | relative viability ([3]; first compound 0.1 µM): 0.12 | relative viability ([4]; first compound 0.01 µM): 0.996 | relative viability ([4]; first compound 0.1 µM): 1.03 | relative viability ([4]; first compound 0.3162 µM): 0.996 | relative viability ([4]; first compound 1 µM): 1.04

NCI-H1651
relative viability ([1]; first compound 0.08 µM): 0.892 | relative viability ([1]; first compound 0.253 µM): 0.901 | relative viability ([1]; first compound 2.53 µM): 0.781 | relative viability ([1]; first compound 8 µM): 0.451 | relative viability ([2]; first compound 0.001 µM): 0.982 | relative viability ([2]; first compound 0.003162 µM): 0.965 | relative viability ([2]; first compound 0.01 µM): 0.487 | relative viability ([2]; first compound 0.03162 µM): 0.0962 | relative viability ([2]; first compound 0.1 µM): 0.0748 | relative viability ([3]; first compound 0.001 µM): 1.11 | relative viability ([3]; first compound 0.003162 µM): 1.06 | relative viability ([3]; first compound 0.01 µM): 0.728 | relative viability ([3]; first compound 0.03162 µM): 0.123 | relative viability ([3]; first compound 0.1 µM): 0.0777 | relative viability ([4]; first compound 0.01 µM): 1.01 | relative viability ([4]; first compound 0.03162 µM): 1.01 | relative viability ([4]; first compound 0.1 µM): 0.955 | relative viability ([4]; first compound 0.3162 µM): 1.06 | relative viability ([4]; first compound 1 µM): 1.07

NCI-H1666
relative viability ([1]; first compound 0.08 µM): 0.771 | relative viability ([1]; first compound 0.253 µM): 0.799 | relative viability ([1]; first compound 2.53 µM): 0.633 | relative viability ([1]; first compound 8 µM): 0.65 | relative viability ([2]; first compound 0.001 µM): 0.844 | relative viability ([2]; first compound 0.003162 µM): 0.796 | relative viability ([2]; first compound 0.01 µM): 0.79 | relative viability ([2]; first compound 0.03162 µM): 0.545 | relative viability ([2]; first compound 0.1 µM): 0.24 | relative viability ([3]; first compound 0.001 µM): 1.07 | relative viability ([3]; first compound 0.003162 µM): 0.963 | relative viability ([3]; first compound 0.01 µM): 1.05 | relative viability ([3]; first compound 0.03162 µM): 0.929 | relative viability ([3]; first compound 0.1 µM): 0.263 | relative viability ([4]; first compound 0.01 µM): 0.825 | relative viability ([4]; first compound 0.03162 µM): 0.877 | relative viability ([4]; first compound 0.1 µM): 0.774 | relative viability ([4]; first compound 0.3162 µM): 0.871 | relative viability ([4]; first compound 1 µM): 0.665
